Source: ChEMBL document CHEMBL5120862, “Novel non-covalent LSD1 inhibitors endowed with anticancer effects in leukemia and solid tumor cellular models” (Eur J Med Chem, 2022)
Calls of active or inactive are those of the source. The rule behind the calls is not given here.

Tests used:
[1] = target: Lysine-specific histone demethylase 1A (Homo sapiens) (UniProt O60341); experiment: Inhibition of LSD1 in human MV4-11 cells assessed as increase in H3K4me2 level at 0.2 to […] incubated for 24 hrs by Western blot analysis; assay type: cell-based; details: dose 0.2-2.5 µM
[2] = target: T1, Histone-lysine N-methyltransferase EHMT2 (Homo sapiens, UniProt Q96KQ7); experiment: Inhibition of G9a (unknown origin) assessed as reduction in substrate methylation using histone H3 and SAM as substrate measured after 15 to 60 mins by microfluidic capillary electrophoresis analysis
T1 sequence (Q96KQ7 whole entry): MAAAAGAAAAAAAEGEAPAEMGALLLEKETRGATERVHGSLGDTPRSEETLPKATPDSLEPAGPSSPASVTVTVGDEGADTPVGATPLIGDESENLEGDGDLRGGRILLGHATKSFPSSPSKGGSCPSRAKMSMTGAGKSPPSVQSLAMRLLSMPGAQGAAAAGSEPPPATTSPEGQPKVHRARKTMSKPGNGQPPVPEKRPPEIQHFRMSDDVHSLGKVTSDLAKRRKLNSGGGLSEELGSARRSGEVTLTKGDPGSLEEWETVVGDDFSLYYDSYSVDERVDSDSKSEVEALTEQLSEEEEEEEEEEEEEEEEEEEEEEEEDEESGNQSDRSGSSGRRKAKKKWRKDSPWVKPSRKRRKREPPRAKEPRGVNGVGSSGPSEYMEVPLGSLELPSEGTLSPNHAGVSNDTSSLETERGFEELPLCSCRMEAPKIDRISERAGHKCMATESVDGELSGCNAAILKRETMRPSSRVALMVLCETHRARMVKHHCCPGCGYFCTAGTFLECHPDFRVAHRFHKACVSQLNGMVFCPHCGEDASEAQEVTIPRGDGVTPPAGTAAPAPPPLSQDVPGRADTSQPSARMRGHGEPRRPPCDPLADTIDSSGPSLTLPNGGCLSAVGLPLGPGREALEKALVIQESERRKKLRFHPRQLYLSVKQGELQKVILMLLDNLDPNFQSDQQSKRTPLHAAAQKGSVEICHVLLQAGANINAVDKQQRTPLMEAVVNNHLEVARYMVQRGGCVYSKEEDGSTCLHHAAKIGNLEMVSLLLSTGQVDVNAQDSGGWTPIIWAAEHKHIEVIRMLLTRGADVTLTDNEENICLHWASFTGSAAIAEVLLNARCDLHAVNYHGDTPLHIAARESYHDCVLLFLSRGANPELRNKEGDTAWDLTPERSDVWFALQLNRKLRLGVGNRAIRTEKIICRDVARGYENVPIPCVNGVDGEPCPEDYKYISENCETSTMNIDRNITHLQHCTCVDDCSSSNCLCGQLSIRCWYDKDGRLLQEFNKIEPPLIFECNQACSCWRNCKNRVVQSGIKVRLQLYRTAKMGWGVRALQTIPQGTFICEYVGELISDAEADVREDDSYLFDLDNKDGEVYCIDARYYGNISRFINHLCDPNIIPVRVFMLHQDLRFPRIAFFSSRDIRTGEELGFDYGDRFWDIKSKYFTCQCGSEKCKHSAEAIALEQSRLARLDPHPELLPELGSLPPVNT

THP-1 [3] = experiment: Antiproliferative activity against human THP-1 cells assessed as inhibition of cell growth incubated for 72 hrs by CellTiter-Glo luminescent cell viability assay; assay type: functional, cell-based; details: THP-1, 72 h
RD [4] = experiment: Antiproliferative activity against human RD cells assessed as inhibition of cell growth incubated for 144 hrs; assay type: functional, cell-based
RD [5] = experiment: Antiproliferative activity against human RD cells assessed as inhibition of cell growth incubated for 72 hrs; assay type: functional, cell-based
LSD1/CoREST complex [6] = target: T2, LSD1/CoREST complex (Homo sapiens, UniProt O60341); experiment: Binding affinity to human LSD1/CoREST assessed as dissociation constant by competitive fluorescence polarization assay; assay type: protein-complex assay
SJRH30 [7] = experiment: Antiproliferative activity against human Rh30 cells assessed as reduction in live cells at 4 uM incubated for 24 hrs by calceinAM/propidium iodide staining based fluorescence microscopy; assay type: functional, cell-based
RD [8] = experiment: Antiproliferative activity against human RD cells assessed as reduction in live cells at 4 uM incubated for 72 hrs by calceinAM/propidium iodide staining based fluorescence microscopy; assay type: functional, cell-based
MV4-11 [9] = experiment: Induction of apoptosis in human MV4-11 cells assessed as accumulation of cells at sub-G1 phase incubated for 24 hrs; assay type: functional, cell-based; details: dose 0.2-25 µM, DDE = dose-dependent effect
[10] = target: Lysine-specific histone demethylase 1A (Homo sapiens) (UniProt O60341); experiment: Inhibition of LSD1 in human Rh30 cells assessed as increase in H3K4me2 level at 2 uM incubated for 48 hrs by Western blot analysis; assay type: cell-based
RD [11] = experiment: Induction of apoptosis in human RD cells assessed as increase in caspase 3/7 level at 4 uM incubated for 24 hrs; assay type: functional, cell-based
SJRH30 [12] = experiment: Antiproliferative activity against human Rh30 cells assessed as inhibition of cell growth incubated for 144 hrs; assay type: functional, cell-based; details: SJRH30, 144 h
SJRH30 [13] = experiment: Antiproliferative activity against human Rh30 cells assessed as inhibition of cell growth incubated for 72 hrs; assay type: functional, cell-based; details: SJRH30, 72 h
[14] = target: Lysine-specific histone demethylase 1A (Homo sapiens) (UniProt O60341); experiment: Inhibition of LSD1 in human RD cells assessed as increase in H3K4me2 level at 2 uM incubated for 48 hrs by Western blot analysis; assay type: cell-based
THP-1 [15] = experiment: Antiproliferative activity against human THP-1 cells assessed as inhibition of cell growth incubated for 144 hrs by CellTiter-Glo luminescent cell viability assay; assay type: functional, cell-based; details: THP-1, 144 h
RD [16] = experiment: Antiproliferative activity against human RD cells assessed as inhibition of cell growth incubated for 24 hrs; assay type: functional, cell-based
MDA-MB-231 = experiment: Antiproliferative activity against human MDA-MB-231 cells assessed as inhibition of cell growth measured after 72 hrs by MTT assay; assay type: functional, cell-based; details: MDA-MB-231, 72 h
SJRH30 [17] = experiment: Antiproliferative activity against human Rh30 cells assessed as inhibition of cell growth incubated for 24 hrs; assay type: functional, cell-based; details: SJRH30, 24 h
[18] = target: Lysine-specific histone demethylase 1A (Homo sapiens) (UniProt O60341); experiment: Inhibition of LSD1 in human MV4-11 cells assessed as increase in CD86 expression level incubated for 24 hrs by qRT-PCR analysis; assay type: cell-based; details: dose 0.2-1 µM
[19] = Cytotoxicity against human derived mesenchymal stem cells assessed as residual cell viability at 1.25 uM measured after 72 hrs relative to control; assay type: toxicity, cell-based; details: read-out: Activity
MV4-11 [20] = experiment: Antiproliferative activity against human MV4-11 cells assessed as inhibition of cell growth at […] incubated for 72 to 144 hrs by trypan blue staining based analysis; assay type: functional; details: dose 2.5 µM, time 72-144 hrs
LSD1/CoREST complex [21] = target: T2, LSD1/CoREST complex; experiment: Inhibition of human LSD1/CoREST using histone H3 peptide as substrate by fluorescence polarization assay; assay type: protein-complex assay
SJRH30 [22] = experiment: Induction of apoptosis in human Rh30 cells assessed as increase in caspase 3/7 level at 4 uM incubated for 24 hrs; assay type: functional, cell-based
MV4-11 [23] = experiment: Induction of cell cycle arrest in human MV4-11 cells assessed as accumulation of cells at G1 phase at 0.2 to […] incubated for 24 hrs; assay type: functional, cell-based; details: dose 0.2-2.5 µM
THP-1 [24] = experiment: Antiproliferative activity against human THP-1 cells assessed as inhibition of cell growth incubated for 24 hrs by CellTiter-Glo luminescent cell viability assay; assay type: functional, cell-based; details: THP-1, 24 h
[25] = target: Histone-lysine N-methyltransferase, H3 lysine-79 specific (Homo sapiens) (UniProt Q8TEK3); experiment: Inhibition of […] (unknown origin) using [3H]SAM and HeLa oligo nucleosomes as substrates at 100 uM incubated for 1 hr relative to control
Sequence of Histone-lysine N-methyltransferase, H3 lysine-79 specific (Homo sapiens) (Q8TEK3 whole entry, looked up): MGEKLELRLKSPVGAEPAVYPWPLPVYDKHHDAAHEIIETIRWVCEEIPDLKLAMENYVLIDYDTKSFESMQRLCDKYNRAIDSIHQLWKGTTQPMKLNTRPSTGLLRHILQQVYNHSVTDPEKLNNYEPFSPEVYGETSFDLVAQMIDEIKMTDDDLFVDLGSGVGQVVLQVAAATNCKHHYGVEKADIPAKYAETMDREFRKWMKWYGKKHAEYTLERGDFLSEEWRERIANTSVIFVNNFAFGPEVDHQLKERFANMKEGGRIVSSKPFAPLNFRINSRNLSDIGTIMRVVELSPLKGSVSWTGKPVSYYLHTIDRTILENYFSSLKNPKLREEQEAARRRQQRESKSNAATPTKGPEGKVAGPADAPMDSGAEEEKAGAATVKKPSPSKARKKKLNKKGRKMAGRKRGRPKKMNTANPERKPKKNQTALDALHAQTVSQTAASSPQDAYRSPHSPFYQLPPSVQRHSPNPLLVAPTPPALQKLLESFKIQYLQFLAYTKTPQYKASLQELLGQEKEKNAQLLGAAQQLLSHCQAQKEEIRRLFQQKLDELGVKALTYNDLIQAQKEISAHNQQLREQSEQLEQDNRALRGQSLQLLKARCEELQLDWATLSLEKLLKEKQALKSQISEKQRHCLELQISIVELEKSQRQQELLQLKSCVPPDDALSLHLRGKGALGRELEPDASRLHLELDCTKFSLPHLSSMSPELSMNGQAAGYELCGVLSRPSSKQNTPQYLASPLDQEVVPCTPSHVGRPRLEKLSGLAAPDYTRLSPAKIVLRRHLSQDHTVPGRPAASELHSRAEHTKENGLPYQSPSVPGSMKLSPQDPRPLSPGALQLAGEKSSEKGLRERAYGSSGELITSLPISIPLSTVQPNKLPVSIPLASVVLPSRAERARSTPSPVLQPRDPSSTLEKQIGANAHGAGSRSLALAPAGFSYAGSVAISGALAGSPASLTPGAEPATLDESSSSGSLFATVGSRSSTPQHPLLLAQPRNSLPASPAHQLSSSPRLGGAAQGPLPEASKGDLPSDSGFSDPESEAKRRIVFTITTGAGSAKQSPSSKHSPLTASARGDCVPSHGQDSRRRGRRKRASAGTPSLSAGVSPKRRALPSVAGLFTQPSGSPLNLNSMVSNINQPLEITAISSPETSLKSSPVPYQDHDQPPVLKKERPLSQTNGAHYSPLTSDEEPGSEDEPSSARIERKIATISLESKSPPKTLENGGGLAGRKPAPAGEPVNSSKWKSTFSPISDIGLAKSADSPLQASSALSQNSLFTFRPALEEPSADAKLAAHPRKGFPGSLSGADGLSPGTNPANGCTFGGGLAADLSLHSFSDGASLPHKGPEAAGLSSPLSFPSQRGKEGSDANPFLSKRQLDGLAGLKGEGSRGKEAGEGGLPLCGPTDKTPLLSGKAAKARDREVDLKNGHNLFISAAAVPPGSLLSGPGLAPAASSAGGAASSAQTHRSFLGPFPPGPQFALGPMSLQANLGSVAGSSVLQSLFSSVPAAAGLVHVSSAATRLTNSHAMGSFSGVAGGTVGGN

[26] = target: T3, MAO-A (amine oxidase [flavin-containing] A) (Homo sapiens, UniProt P21397); experiment: Inhibition of human MAO-A using p-tyramine as substrate at 100 uM by fluorimetric analysis relative to control; details: human MAO-A enzyme, probe p-tyramine
T3 sequence (P21397 whole entry): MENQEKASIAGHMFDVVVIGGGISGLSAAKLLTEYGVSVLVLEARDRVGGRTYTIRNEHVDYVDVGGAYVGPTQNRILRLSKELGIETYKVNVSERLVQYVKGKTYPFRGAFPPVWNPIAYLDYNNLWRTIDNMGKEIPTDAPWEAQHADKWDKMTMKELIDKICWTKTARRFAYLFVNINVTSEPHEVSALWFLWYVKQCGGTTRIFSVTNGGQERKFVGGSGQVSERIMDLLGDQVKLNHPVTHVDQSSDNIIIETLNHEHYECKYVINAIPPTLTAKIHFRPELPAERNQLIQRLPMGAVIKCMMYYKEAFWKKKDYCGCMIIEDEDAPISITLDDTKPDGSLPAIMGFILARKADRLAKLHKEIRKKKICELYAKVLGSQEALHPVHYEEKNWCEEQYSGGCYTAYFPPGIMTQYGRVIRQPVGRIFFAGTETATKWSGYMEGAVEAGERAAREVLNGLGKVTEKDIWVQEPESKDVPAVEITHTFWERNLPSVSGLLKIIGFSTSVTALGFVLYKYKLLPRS

[27] = target: Histone-lysine N-methyltransferase EZH2 (Homo sapiens) (UniProt Q15910); experiment: Inhibition of EZH2 (unknown origin) using [3H]SAM and chicken core histone as substrates at 100 uM incubated for 1 hr relative to control
Sequence of Histone-lysine N-methyltransferase EZH2 (Homo sapiens) (Q15910 whole entry, looked up): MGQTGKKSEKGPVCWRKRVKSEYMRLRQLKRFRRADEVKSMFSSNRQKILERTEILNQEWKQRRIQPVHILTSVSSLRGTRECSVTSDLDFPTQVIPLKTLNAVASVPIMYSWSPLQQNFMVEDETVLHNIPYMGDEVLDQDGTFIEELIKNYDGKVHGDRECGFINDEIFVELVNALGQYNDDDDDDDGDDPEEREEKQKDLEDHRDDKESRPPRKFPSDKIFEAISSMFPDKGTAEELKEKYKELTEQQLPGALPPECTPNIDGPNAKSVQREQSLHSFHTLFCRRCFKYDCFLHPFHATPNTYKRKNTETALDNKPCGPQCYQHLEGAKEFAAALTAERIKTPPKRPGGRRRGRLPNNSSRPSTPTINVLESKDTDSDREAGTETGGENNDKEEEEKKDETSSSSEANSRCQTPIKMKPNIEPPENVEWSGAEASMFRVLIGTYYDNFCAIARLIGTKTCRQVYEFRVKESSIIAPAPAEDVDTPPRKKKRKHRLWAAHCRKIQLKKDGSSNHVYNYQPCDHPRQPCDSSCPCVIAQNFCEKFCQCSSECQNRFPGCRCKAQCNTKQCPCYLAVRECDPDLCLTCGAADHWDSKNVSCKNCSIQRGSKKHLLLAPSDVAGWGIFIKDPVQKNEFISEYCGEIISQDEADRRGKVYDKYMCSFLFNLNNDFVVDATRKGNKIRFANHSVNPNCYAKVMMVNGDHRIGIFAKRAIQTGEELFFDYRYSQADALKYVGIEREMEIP

[28] = target: T4, MAO-B (amine oxidase [flavin-containing] B) (Homo sapiens, UniProt P27338); experiment: Inhibition of human MAO-B using p-tyramine as substrate at 100 uM by fluorimetric analysis relative to control; details: human MAO-B enzyme, probe p-tyramine
T4 sequence (P27338 whole entry): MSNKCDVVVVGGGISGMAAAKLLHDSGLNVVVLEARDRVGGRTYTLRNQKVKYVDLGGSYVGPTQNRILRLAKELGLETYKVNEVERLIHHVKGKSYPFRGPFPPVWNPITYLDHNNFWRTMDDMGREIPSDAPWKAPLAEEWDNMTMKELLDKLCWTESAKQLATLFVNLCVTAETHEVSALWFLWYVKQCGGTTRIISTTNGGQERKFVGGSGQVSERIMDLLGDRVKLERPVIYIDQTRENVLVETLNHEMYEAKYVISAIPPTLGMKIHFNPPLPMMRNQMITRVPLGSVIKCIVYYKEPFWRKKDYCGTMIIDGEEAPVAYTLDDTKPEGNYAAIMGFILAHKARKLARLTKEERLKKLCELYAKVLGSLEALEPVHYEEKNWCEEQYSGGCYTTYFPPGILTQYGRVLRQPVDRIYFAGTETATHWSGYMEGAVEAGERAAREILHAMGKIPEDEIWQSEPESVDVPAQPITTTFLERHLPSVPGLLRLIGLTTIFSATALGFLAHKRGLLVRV

C#CCN(C)CCCNc1nc(NC2CCN(Cc3ccccc3)CC2)c2cc(OC)c(OC)cc2n1
inhibition [1]: Active
Ki [2]: 26100 nM
IC50 (THP-1 [3]): 340 nM
IC50 (RD [4]): 1420 nM
IC50 (RD [5]): 1920 nM
Kd (LSD1/CoREST complex [6]): 64 nM
Activity (SJRH30 [7]): Active
Activity (RD [8]): Active
Activity (MV4-11 [9]): Dde
inhibition [10]: Active
Activity (RD [11]): Active
IC50 (SJRH30 [12]): 1420 nM
IC50 (SJRH30 [13]): 1530 nM
inhibition [14]: Active
IC50 (THP-1 [15]): 160 nM
IC50 (RD [16]): 4560 nM
IC50 (MDA-MB-231): 3400 nM
IC50 (SJRH30 [17]): 1760 nM
inhibition [18]: Active
viability at 72 h, 1.25 µM [19]: 96%
inhibition (MV4-11 [20]): Active
Ki (LSD1/CoREST complex [21]): 153 nM
Activity (SJRH30 [22]): Active
Activity (MV4-11 [23]): Active
IC50 (THP-1 [24]): 420 nM

COc1cc2nc(NCCCN(C)C)nc(NC3CCN(CCCc4ccccc4)CC3)c2cc1OC
inhibition [25]: 30.3%
Ki [2]: 690 nM
inhibition at 100 µM [26]: 7.4%
IC50 (THP-1 [3]): 390 nM
inhibition [27]: 2.9%
IC50 (THP-1 [15]): 220 nM
IC50 (MDA-MB-231): 800 nM
IC50 (THP-1 [24]): 490 nM
inhibition at 100 µM [28]: 0.3%
